# Experimental data published in patent US20140194479A1, “COMPOSITIONS AND METHODS FOR TREATING MOOD DISORDERS” (priority 2011, published 2014).
# Tests used:
# [1] = test system: 5-HT/5-HIAA levels in the forebrain neocortex; details: 300 mg/kg twice per day, within 5 days; Gurevich et al., 2002; cited from earlier work
# [2] = test system: histone H3 and H4 proteins in the forebrain neocortex; assay: Western blotting of histone proteins, forebrain neocortex of SFR Balb/c mice; format: in vivo
# Experimental: (§1) Forebrain neocortical tissue was dissected in phosphate-buffered saline supplemented with protease inhibitors and homogenized in 0.5% SDS, protease inhibitor cocktail (Complete Mini, Roche, Germany), 10 mM EDTA, and 10 mM Tris HCl (pH 8.0). Protein concentration was measured using the NanoDrop instrument (Thermo Scientific, Wilmington, Del.).
# (§2) For loading controls, an anti-GAPDH antibody was used (Abcam, Cambridge, Mass.; 1:100,000). After incubation with primary antibody, membranes were incubated with a horseradish-peroxidase-conjugated secondary antibody (anti-rabbit IgG-HRP; Sigma, St. Louis, Mo.; dilution: 1:5,000) for 1 hour at room temperature. SuperSignal West Dura (Thermo Scientific, Waltham, Mass.) was used to visualize bound antigen. Optical densities (OD) of histone protein signals were determined using NIH ImageJ software. ODs were normalized to corresponding ODs obtained for GAPDH.
# SFR Balb/c mice [3] = assay: Elevated Plus Maze (EPM), SFR Balb/c mice; format: in vivo; details: for time spent in the open arms of the EPM: SFR Balb/c treated during adolescence (P35 to P60), vs non-treated controls
# SFR Balb/c mice [4] = assay: Forced Swim Test (FST), SFR (non-stressed) Balb/c mice; format: in vivo; details: for immobility in the FST: SFR Balb/c treated during adolescence (P35 to P60), vs SFR controls
# Experimental: (§4) For chronic drug treatment, drugs were administered via the drinking water. […] Suberoylanidide hydroxamic acid (SAHA) was dissolved in DMSO and subsequently diluted about 100 fold in water containing 0.2% sucrose. Mice consumed about 200 mg/kg/day of SAHA (Butler et al., 2000) and their controls received drinking water supplemented with the same amount of DMSO and sucrose that SAHA-treated animals received. […] In these experiments, mice received a single intraperitoneal injection of SAHA (100 mg/kg) at P35, followed by SAHA treatment via the drinking water for the next 3 days.
# Three days later, mice were tested in a modified version of Forced Swim Test (FST), i.e., a 6 minute exposure on day 1 followed by another 6 minute exposure on day 2.
# [5] = test system: histone H3 and H4 proteins in the forebrain neocortex; assay: Western blotting of histone proteins, forebrain neocortex of IMS Balb/c mice; format: in vivo
# Experimental: as §1, §2
# [6] = test system: histone H3 and H4 proteins in the forebrain neocortex; assay: Western blotting of histone proteins, forebrain neocortex of C57BI/6 mice; format: in vivo; details: C57BI/6 mice at P60, IMS-fluoxetine, OD normalized to GAPDH, mean ± sem
# Experimental: as §1, §2
# SFR Balb/c mice [7] = details: adolescent treatment; Bhansali et al., 2007; cited from earlier work
# [8] = test system: RNA Polymerase II (Pol II) at BDNF promotors; assay: ChIP/real-time PCR, Pol II enrichment at BDNF promotors; format: in vivo, Balb/c mice; details: non-stressed Balb/c treated P35 to P59; FIG. 15C
# From the text: (§3) Data in (FIG. 15A) are mean±sem of 8 animals per group. Data in (FIG. 15B) and (FIG. 15C) were obtained from ChIP/real-time PCR measures (mean±sem; n=4/group) using antibodies directed against aCH4K12 (FIG. 15B) and Pol II (FIG. 15C). […] Data in (FIG. 15D) are from RT-real-time PCR measures of BDNF mRNA levels (mean±sem, n=5/group). […] All data were compared by ANOVA and significant differences between groups were resolved post hoc using Tukey Kramer multiple comparisons as indicated. In all studies, male and female mice were used.
# [9] = test system: aCH4K12 at BDNF promotors; assay: ChIP/real-time PCR, aCH4K12 enrichment at BDNF promotors; format: in vivo, Balb/c mice; details: non-stressed Balb/c treated P35 to P59; FIG. 15B
# From the text: as §3
# HDAC mRNA = assay: Real-time RT-PCR of HDAC mRNA, forebrain neocortex of IMS Balb/c mice
# From the text: (§5) Briefly, offspring of first-time mothers were separated from their dam daily for three hours (from 1:00 to 4:00 P.M.) from postnatal age day 2 (P2) until P15. Control animals were standard facility-reared (SFR) pups of first-time mothers. Housing and husbandry conditions were identical for IMS and SFR mice. Pups were weaned at P28 and group housed by sex (five animals randomly selected from at least five different litters). Since this study involved behavioral tests of emotive phenotypes that are sensitive to differences in the estrus cycle of females, all studies disclosed below were conducted on male mice.
# as §4
# HDAC3 [10] = target: T1, HDAC3 (Homo sapiens, UniProt O15379); details: read-out: IC50 HDAC 3; cited from earlier work
# Target sequence in this assay (O15379 whole entry, species assumed): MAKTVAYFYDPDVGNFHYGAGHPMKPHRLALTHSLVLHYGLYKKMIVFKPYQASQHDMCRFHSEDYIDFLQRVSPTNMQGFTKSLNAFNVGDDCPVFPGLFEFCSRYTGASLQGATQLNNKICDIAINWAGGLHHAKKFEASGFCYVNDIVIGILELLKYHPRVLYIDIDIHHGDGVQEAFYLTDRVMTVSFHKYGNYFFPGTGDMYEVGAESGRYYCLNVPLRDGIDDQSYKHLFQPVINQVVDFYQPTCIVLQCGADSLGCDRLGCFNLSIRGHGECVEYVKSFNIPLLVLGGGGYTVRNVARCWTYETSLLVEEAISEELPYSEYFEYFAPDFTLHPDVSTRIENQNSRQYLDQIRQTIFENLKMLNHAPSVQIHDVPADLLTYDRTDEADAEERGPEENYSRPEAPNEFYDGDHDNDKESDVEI
# Target sequence in this assay (Q9Y618 395-489 partner limits assumed, species assumed): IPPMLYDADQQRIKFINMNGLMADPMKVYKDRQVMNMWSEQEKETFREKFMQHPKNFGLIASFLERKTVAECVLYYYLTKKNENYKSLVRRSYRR
# HDAC3 [11] = target: T1, HDAC3; details: at concentration below 10^−4M; Ito et al., 2002; cited from earlier work
# Target sequence in this assay (O15379 whole entry, species assumed): as the sequence (O15379 whole entry, species assumed) above
# phosphodiesterases = details: at concentration below 10^−4M; Ito et al., 2002; cited from earlier work
# IMS Balb/c mice [12] = assay: Forced Swim Test (FST), IMS Balb/c mice
# From the text: as §5, §4
# Their times spent in open arms and the number of arm crossings was recorded. […]
# adenosine receptors = details: at concentration below 10^−4M; Ito et al., 2002; cited from earlier work
# [13] = Plasma concentration of theophylline under drinking water treatment; details: over 24 hours of theophylline-supplemented (10^−4M) drinking water consumption
# Experimental: as §4
# IMS Balb/c mice [14] = assay: Elevated Plus Maze (EPM), IMS Balb/c mice
# From the text: as §5, §4
# Their times spent in open arms and the number of arm crossings was recorded. Three days later, mice were tested in a modified version of Forced Swim Test (FST), i.e., a 6 minute exposure on day 1 followed by another 6 minute exposure on day 2.
# HDAC1 = HDAC1 (Homo sapiens, UniProt Q13547); details: at concentration below 10^−4M; Ito et al., 2002; cited from earlier work
# Sequence of HDAC1 (Q13547 whole entry, species assumed): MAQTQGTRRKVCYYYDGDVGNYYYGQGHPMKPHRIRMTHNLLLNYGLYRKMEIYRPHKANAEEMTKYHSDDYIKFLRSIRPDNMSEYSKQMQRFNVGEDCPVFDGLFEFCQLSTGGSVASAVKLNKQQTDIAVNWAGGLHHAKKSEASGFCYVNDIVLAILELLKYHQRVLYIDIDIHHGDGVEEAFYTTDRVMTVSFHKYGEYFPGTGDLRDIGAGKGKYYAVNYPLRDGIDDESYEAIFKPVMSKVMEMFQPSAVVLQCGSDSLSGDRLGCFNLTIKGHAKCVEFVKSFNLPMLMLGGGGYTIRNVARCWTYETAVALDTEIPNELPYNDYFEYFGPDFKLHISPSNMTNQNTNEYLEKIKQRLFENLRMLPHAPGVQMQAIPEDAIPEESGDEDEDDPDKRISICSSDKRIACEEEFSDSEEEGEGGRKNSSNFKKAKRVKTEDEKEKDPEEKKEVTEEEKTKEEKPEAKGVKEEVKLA
# [15] = test system: extracellular 5-HT levels; details: McEwen et al., 2010, Mennini et al., 1987; cited from earlier work
# [16] = SFR Balb/c, adolescent treatment
# [17] = IMS Balb/c treated between P21 and P35
# [18] = IMS-fluoxetine Balb/c at P60, mean±sem
# [19] = SFR Balb/c, fluoxetine alone or with SAHA, OD normalized to GAPDH, mean ± sem
# [20] = IMS Balb/c, adolescent fluoxetine vs non-treated IMS
# [21] = IMS Balb/c, adolescent treatment, compared to non-treated IMS Balb/c mice
# [22] = IMS Balb/c, fluoxetine during adolescence, OD normalized to GAPDH, mean ± sem
# [23] = IMS Balb/c, treatment P35 to P60, vs non-treated IMS
structure (smiles),measurement,setting,value
"N[C@@H](Cc1ccc(Cl)cc1)C(=O)O (racemic) [pCPA, para-chlorophenylalanine]",reduction of 5-HT/5-HIAA levels in the forebrain neocortex,[1],about 80%
Nc1ccccc1NC(=O)c1ccc(CNC(=O)OCc2cccnc2)cc1 [MS-275],effect on acetylated H4K5 expression,[2]; [16],increased
same,effect on acetylated H4K8 expression,[2]; [16],increased
same,effect on acetylated H4K12 expression,[2]; [16],increased
"O=C(CCCCCCC(=O)Nc1ccccc1)NO [SAHA, suberoylanilide hydroxamic acid]",percentage of open arm entries in the EPM,SFR Balb/c mice [3]; SFR Balb/c treated during adolescence,lowest percentage
same,time spent in the open arms of the EPM,SFR Balb/c mice [3],significantly less time
same,immobility in the FST,SFR Balb/c mice [4],significantly increased
same,effect on development of the adult epigenetic phenotype,[5]; [17],did not prevent
same,effect on the decreased acetylation of histone H4 proteins,[5]; [17],prevented
CNCCC(Oc1ccc(C(F)(F)F)cc1)c1ccccc1 (centres unmarked) [fluoxetine],H3K4me3 expression,[6],0.94 ± 0.02
same,H3K9me2 expression,[6],0.89 ± 0.03
same,H3 expression,[6],0.98 ± 0.02
same,acH3K9 expression,[6],1.00 ± 0.03
same,H4 expression,[6]; n = 5,1.00 ± 0.03
same,FST behavior of SFR controls,SFR Balb/c mice [7],had no effect
same,increase of density of Pol II associated with the P3 promotor of the BDNF gene,[8],not in fluoxetine-only treated mice
same,enrichment of aCH4K12 at BDNF promotor P1,[9],higher enrichment
same,enrichment of aCH4K12 at BDNF promotor P3,[9],higher enrichment
same,effect on HDAC mRNA expression levels,"HDAC mRNA; IMS Balb/c, treatment P35 to P60, nine HDAC mRNAs",did not alter
same,"HDAC1 mRNA expression, real-time PCR ½^ΔCt",HDAC mRNA; [18],0.011±0.0006
same,"HDAC2 mRNA expression, real-time PCR ½^ΔCt",HDAC mRNA; [18],0.0016±0.0001
same,"HDAC3 mRNA expression, real-time PCR ½^ΔCt",HDAC mRNA; [18],0.055±0.004
same,"HDAC4 mRNA expression, real-time PCR ½^ΔCt",HDAC mRNA; [18],0.011±0.002
same,"HDAC5 mRNA expression, real-time PCR ½^ΔCt",HDAC mRNA; [18],0.044±0.006
same,"HDAC7 mRNA expression, real-time PCR ½^ΔCt",HDAC mRNA; [18],0.011±0.001
same,"HDAC8 mRNA expression, real-time PCR ½^ΔCt",HDAC mRNA; [18],0.0035±0.0004
same,"HDAC9 mRNA expression, real-time PCR ½^ΔCt",HDAC mRNA; [18],0.001±0.0002
same,"HDAC10 mRNA expression, real-time PCR ½^ΔCt",HDAC mRNA; [18],0.0074±0.0006
same,time spent in the open arms of the EPM,SFR Balb/c mice [3],did not differ
same,immobility in the FST,SFR Balb/c mice [4],did not differ
same,"immobility in the forced swim test (FST), antidepressant-like effects","SFR Balb/c mice [4]; non-stressed Balb/c treated P35 to P59, vs vehicle and fluoxetine-only, FIG. 15A",not achieved
same,H3K4me3 expression,[2]; [19],1.12 ± 0.02
same,H3K9me2 expression,[2]; [19],1.08 ± 0.04
same,H3 expression,[2]; [19],0.96 ± 0.01
same,acH3K9 expression,[2]; [19],0.86 ± 0.03
same,acH4K5 expression,[2]; [19],0.45 ± 0.06
same,acH4K8 expression,[2]; [19],0.86 ± 0.06
same,acH4K12 expression,[2]; [19],0.80 ± 0.03
same,acH4K16 expression,[2]; [19],0.70 ± 0.06
same,H4 expression,"[2]; SFR Balb/c, fluoxetine alone or with SAHA, OD on Western blots normalized to GAPDH, mean ± sem, n = 5",1.10 ± 0.04
same,effect on histone H3/H4 expression,"[2]; SFR mice, adolescent fluoxetine 16 mg/kg/day vs vehicle, FIG. 7",does not alter
same,increase in acetylated H3K9 protein,[5]; [20],55%
same,increase in acetylated H4K12 protein,[5]; [20],230%
same,increase in total histone H3 protein expression,[5]; [20],60%
same,increase in total histone H4 protein expression,[5]; [20],13%
same,H3K4me3,[5]; [21],Increased
same,acH3K9,[5]; [21],Increased
same,acH4K5,[5]; [21],Increased
same,acH4K12,[5]; [21],Increased
same,acK4K8,[5]; [21],Increased
same,H3K4me3 expression,[5]; [22],0.94 ± 0.07
same,H3K9me2 expression,[5]; [22],0.93 ± 0.03
same,H3 expression,[5]; [22],1.31 ± 0.03
same,acH3K9 expression,[5]; [22],1.21 ± 0.02
same,acH4K5 expression,[5]; [22],0.94 ± 0.02
same,acH4K8 expression,[5]; [22],1.51 ± 0.06
same,acH4K12 expression,[5]; [22],1.16 ± 0.04
same,acH4K16 expression,[5]; [22],1.04 ± 0.04
same,H4 expression,"[5]; IMS Balb/c, fluoxetine during adolescence, OD on Western blots normalized to GAPDH, mean ± sem, n = 5",0.97 ± 0.05
same,effect on acetylated H4K12 protein expression,[5]; [23],significantly increased
same,effect on acetylated histone H3K9 expression,[5]; [23],significantly increased
same,effect on acetylated histone H4K8 expression,[5]; [23],significantly increased
same,effect on dimethylated histone H3 protein expression,[5]; [23],did not change
same,effect on total H3 protein expression,[5]; [23],increased
same,effect on total H4 protein expression,[5]; [23],increased
same,effect on trimethylated histone H3 protein expression,[5]; [23],increased
CCCC(=O)[O-].[Na+] [sodium butyrate],IC50,HDAC3 [10],700 µM
Cn1c(=O)c2[nH]cnc2n(C)c1=O [theophylline],activation of HDAC3,HDAC3 [11],activates
same,inhibition of phosphodiesterases,phosphodiesterases,exerts no
same,total immobility time in the FST,"IMS Balb/c mice [12]; IMS Balb/c treated P35 to P60, greater immobility of IMS mice",significantly potentiated
same,number of passive episodes in the FST,"IMS Balb/c mice [12]; SFR controls, IMS and treated IMS mice",no significant differences
same,antagonist effect on adenosine receptors,adenosine receptors,no antagonist effect
same,plasma concentrations of theophylline,[13],below 10^−4 M
same,time spent in the open arms of the EPM,SFR Balb/c mice [3],did not differ
same,immobility in the FST,SFR Balb/c mice [4],did not differ
same,total time spent in open arms of the EPM,"IMS Balb/c mice [14]; IMS Balb/c treated P35 to P60, vs non-treated IMS mice",significantly less time
same,total number of arm crossings in the EPM,"IMS Balb/c mice [14]; SFR controls, IMS and treated IMS Balb/c",no significant difference
same,percentages of crossings into open arms,IMS Balb/c mice [14]; treated IMS Balb/c compared with SFR controls,did not reach statistical significance
same,activation of HDAC1,HDAC1,activates
CN1c2ccccc2C(NCCCCCCC(=O)O)c2ccc(Cl)cc2S1(=O)=O (centres unmarked) [tianeptine],extracellular 5-HT levels,[15],without marked changes
